{"source": "patent US20110195505A1", "about": "“BACTERIAL STRAINS FOR BUTANOL PRODUCTION” (priority 2009, published 2011)", "key": {"[1]": {"tested_on": "BP63 (ΔfabZ1)", "test": "Shake flask growth rate of BP63 with isobutanol and oleic acid", "format": "cell-based, L. plantarum", "description": "Four sets of conditions were prepared. For the first set, 20 mg/l oleic acid was added and isobutanol was added to 0, 1, 1.5, 2 and 2.5% final concentration. In the second set of flasks, 30 mg/L of oleic acid was added to the medium and the following final isobutanol concentrations were used: 0, 1, 1.5, 2, 2.5, and 3% w/v. The third and fourth set of the shake flask cultures were done at oleic acid concentrations of 50 and 55 mg/L. These flasks were placed in a shaking water bath at 30° C. at 80 RPM. Samples were taken at 2, 3, 4, and 5 hrs and the OD600 was measured."}, "[2]": {"tested_on": "L. plantarum strain PN0512", "test": "Growth yield (OD600) in isobutanol, stearic acid fed and unfed cultures", "format": "cell-based, Lactobacillus plantarum", "settings": "no fatty acid fed, 25 hours, 30° C.", "description": "For growth yield experiments, 5 ml of medium with test fatty acids (10-500 mg per liter) and varying concentrations of isobutanol in 15 ml screw cap tubes was inoculated with 12.5 μl of the working stock giving an initial OD600 of 0.012. The caps were tightly sealed and incubated at 30° C. on a roller drum for 20 to 26 hours, at which time 1.0 ml was removed and OD600 was measured with a blank of medium amended with the fatty acid. All solvent concentrations are reported as % (w/v).\nGrowth of L. plantarum cultures in the media described in General Methods and containing varying concentrations of isobutanol was measured and compared with the cultures fed (supplemented with) stearic acid at a final concentration of 50 mg per liter of medium. Cultures were prepared as described in General Methods."}, "[3]": {"tested_on": "BP63 (ΔfabZ1)", "test": "Growth of BP63 in the presence of isobutanol and oleic acid", "format": "cell-based, L. plantarum", "settings": "for Growth (OD600) of BP63 (ΔfabZ1): 18 hours, 30° C.", "description": "The purpose of these experiments was to see if the requirement for oleic acid changed in the presence of isobutanol. Semi-synthetic LAB medium, pH6, supplemented with 75 μg/mL uracil, 2.5 μg/mL hematin was used along with a series of varying concentrations of isobutanol and oleic acid. Oleic was added to the final concentrations of 0, 10, 20, 30, 40, and 50 mg/L. Isobutanol was added to the final concentrations of 0, 1.0, 1.5, 2.0, 2.5, and 3% (w/v). 2.5 mL of media was inoculated with […] of the BP63 working stock. The cultures were incubated at 30° C. without shaking for 18 hours. At 18 hours the OD600 was measured."}, "[4]": {"tested_on": "BP63 (ΔfabZ1)", "test": "Growth yield (OD600) with oleic acid, fabZ1 deletion strain", "format": "cell-based, L. plantarum", "settings": "for OD600 BP63 (ΔfabZ1): 24 hours, 30° C.", "description": "(§1) Strain BP63 (ΔfabZ1, described in Example 4) and the parental strain BP15 (fabZ1^+, described in Example 3) were grown in semi-synthetic LAB medium, pH6, with 75 μg/ml uracil and 2.5 μg/mL hematin in the presence and absence of an unsaturated fatty acid, oleic acid. Cultures were prepared as described in General Methods."}, "[5]": {"tested_on": "BP63 (L. plantarum PN0512ΔpyrFΔfabZ1)", "test": "Fatty acid supplements supporting growth of the fabZ1 mutant", "format": "cell-based", "settings": "fatty acid supplied at 80 mg/L; overnight incubation, OD600", "description": "With 100 or 200 mg/liter of oleic acid the growth of BP63 was equivalent to that of the fabZ1^+ control strain, BP15. […] Thus, we conclude that fabZ1 in L. plantarum has the same function as FabN in E. faecalis (Wang, H. and Cronan, J. E. 2004. Functional replacement of the FabA and FabB proteins of Escherichia coli fatty acid synthesis by Enterococcus faecalis FabZ and FabF homologs. J. Biol. Chem. 279, 34489-95). To further test the range of fatty acid supplements that support growth of the fabZ1 mutant, several other fatty acids were supplied at 80 mg/L to the semi-synthetic LAB medium as described above. BP63 and the parental control BP15 were inoculated from the working stocks. After overnight incubation, the OD600 was measured. The growth of BP15 was not inhibited by any of the fatty acids tested. The Table 9 below summarizes the results for the fabZ1 mutant strain, BP63."}, "[6]": {"tested_on": "BP15 (fabZ1^+)", "test": "Growth yield (OD600) with oleic acid, parental strain", "format": "cell-based, L. plantarum", "settings": "24 hours, 30° C.", "description": "as §1"}}, "note": "Values joined by “and” are separate entries in the source; they are usually repeats but may differ in a detail not shown here. Equal entries are not always repeated.", "data": [{"smiles": "CC(C)CO", "note": "[Isobutanol, isobutanol]", "values": [{"measurement": "effect of isobutanol on growth rate of fabZ1 mutant strain BP63", "setting": "[1]; shake flask, suboptimal concentrations of oleic acid, FIG. 1", "value": "stimulated growth"}, {"measurement": "OD600 unfed control", "setting": "[2]; 2.3 % w/v isobutanol", "value": 0.727}, {"measurement": "OD600 unfed control", "setting": "[2]; 2.5 % w/v isobutanol", "value": 0.341}, {"measurement": "OD600 unfed control", "setting": "[2]; 2.7 % w/v isobutanol", "value": 0.131}, {"measurement": "OD600 unfed control", "setting": "[2]; 2.9 % w/v isobutanol", "value": 0.051}, {"measurement": "Growth (OD600) of BP63 (ΔfabZ1)", "setting": "[3]; oleic acid 0 mg/liter, iso-butanol 1%", "value": 0.0383}, {"measurement": "Growth (OD600) of BP63 (ΔfabZ1)", "setting": "[3]; oleic acid 0 mg/liter, iso-butanol 1.5%", "value": 0.0385}, {"measurement": "Growth (OD600) of BP63 (ΔfabZ1)", "setting": "[3]; oleic acid 0 mg/liter, iso-butanol 2%", "value": 0.0402}, {"measurement": "Growth (OD600) of BP63 (ΔfabZ1)", "setting": "[3]; oleic acid 0 mg/liter, iso-butanol 2.5%", "value": 0.038}, {"measurement": "Growth (OD600) of BP63 (ΔfabZ1)", "setting": "[3]; oleic acid 0 mg/liter, iso-butanol 3%", "value": 0.0351}, {"measurement": "Growth (OD600) of BP63 (ΔfabZ1)", "setting": "[3]; oleic acid 10 mg/liter, iso-butanol 1%", "value": 0.0829}, {"measurement": "Growth (OD600) of BP63 (ΔfabZ1)", "setting": "[3]; oleic acid 10 mg/liter, iso-butanol 1.5%", "value": 0.0601}, {"measurement": "Growth (OD600) of BP63 (ΔfabZ1)", "setting": "[3]; oleic acid 10 mg/liter, iso-butanol 2%", "value": 0.0701}, {"measurement": "Growth (OD600) of BP63 (ΔfabZ1)", "setting": "[3]; oleic acid 10 mg/liter, iso-butanol 2.5%", "value": 0.0684}, {"measurement": "Growth (OD600) of BP63 (ΔfabZ1)", "setting": "[3]; oleic acid 10 mg/liter, iso-butanol 3%", "value": 0.0397}, {"measurement": "Growth (OD600) of BP63 (ΔfabZ1)", "setting": "[3]; oleic acid 20 mg/liter, iso-butanol 1%", "value": 0.2291}, {"measurement": "Growth (OD600) of BP63 (ΔfabZ1)", "setting": "[3]; oleic acid 20 mg/liter, iso-butanol 1.5%", "value": 0.2375}, {"measurement": "Growth (OD600) of BP63 (ΔfabZ1)", "setting": "[3]; oleic acid 20 mg/liter, iso-butanol 2%", "value": 0.068}, {"measurement": "Growth (OD600) of BP63 (ΔfabZ1)", "setting": "[3]; oleic acid 20 mg/liter, iso-butanol 2.5%", "value": 0.0594}, {"measurement": "Growth (OD600) of BP63 (ΔfabZ1)", "setting": "[3]; oleic acid 20 mg/liter, iso-butanol 3%", "value": 0.0399}, {"measurement": "Growth (OD600) of BP63 (ΔfabZ1)", "setting": "[3]; oleic acid 30 mg/liter, iso-butanol 1%, listed as iso-butanol", "value": 0.7686}, {"measurement": "Growth (OD600) of BP63 (ΔfabZ1)", "setting": "[3]; oleic acid 30 mg/liter, iso-butanol 1%, listed as isobutanol", "value": 0.769}, {"measurement": "Growth (OD600) of BP63 (ΔfabZ1)", "setting": "[3]; oleic acid 30 mg/liter, iso-butanol 1.5%, listed as iso-butanol", "value": 0.7137}, {"measurement": "Growth (OD600) of BP63 (ΔfabZ1)", "setting": "[3]; oleic acid 30 mg/liter, iso-butanol 1.5%, listed as isobutanol", "value": 0.714}, {"measurement": "Growth (OD600) of BP63 (ΔfabZ1)", "setting": "[3]; oleic acid 30 mg/liter, iso-butanol 2%", "value": 0.402}, {"measurement": "Growth (OD600) of BP63 (ΔfabZ1)", "setting": "[3]; oleic acid 30 mg/liter, iso-butanol 2.5%", "value": 0.1606}, {"measurement": "Growth (OD600) of BP63 (ΔfabZ1)", "setting": "[3]; oleic acid 30 mg/liter, iso-butanol 3%", "value": 0.0995}, {"measurement": "Growth (OD600) of BP63 (ΔfabZ1)", "setting": "[3]; oleic acid 40 mg/liter, iso-butanol 1%", "value": 1.2315}, {"measurement": "Growth (OD600) of BP63 (ΔfabZ1)", "setting": "[3]; oleic acid 40 mg/liter, iso-butanol 1.5%", "value": 0.8852}, {"measurement": "Growth (OD600) of BP63 (ΔfabZ1)", "setting": "[3]; oleic acid 40 mg/liter, iso-butanol 2%", "value": 0.8012}, {"measurement": "Growth (OD600) of BP63 (ΔfabZ1)", "setting": "[3]; oleic acid 40 mg/liter, iso-butanol 2.5%", "value": 0.1793}, {"measurement": "Growth (OD600) of BP63 (ΔfabZ1)", "setting": "[3]; oleic acid 40 mg/liter, iso-butanol 3%", "value": 0.1358}, {"measurement": "Growth (OD600) of BP63 (ΔfabZ1)", "setting": "[3]; oleic acid 50 mg/liter, iso-butanol 1%", "value": 1.2567}, {"measurement": "Growth (OD600) of BP63 (ΔfabZ1)", "setting": "[3]; oleic acid 50 mg/liter, iso-butanol 1.5%", "value": 1.257}, {"measurement": "Growth (OD600) of BP63 (ΔfabZ1)", "setting": "[3]; oleic acid 50 mg/liter, iso-butanol 2%", "value": 0.5464}, {"measurement": "Growth (OD600) of BP63 (ΔfabZ1)", "setting": "[3]; oleic acid 50 mg/liter, iso-butanol 2.5%", "value": 0.1654}, {"measurement": "Growth (OD600) of BP63 (ΔfabZ1)", "setting": "[3]; oleic acid 50 mg/liter, iso-butanol 3%", "value": 0.1185}, {"measurement": "effect of isobutanol on growth of the fabZ1 mutant", "setting": "[3]; oleic acid supplied at sub-optimal levels", "value": "enhanced the growth"}]}, {"smiles": "CCCCCCCC/C=C\\CCCCCCCC(=O)O", "note": "[Oleic acid, oleic acid]", "values": [{"measurement": "growth rate of BP63 compared with parental strain BP15", "setting": "[1]; 55 mg/liter oleic acid, all concentrations of isobutanol", "value": "essentially identical"}, {"measurement": "growth of BP63 compared with fabZ1^+ control strain BP15", "setting": "[4]; 100 or 200 mg/liter of oleic acid", "value": "equivalent"}, {"measurement": "growth of BP63", "setting": "[4]; low concentrations of oleic acid up to 12 mg/liter", "value": "essentially no growth"}, {"measurement": "OD600 BP63 (ΔfabZ1)", "setting": "[4]; oleic acid 1.5 mg/liter", "value": 0.0091}, {"measurement": "OD600 BP63 (ΔfabZ1)", "setting": "[4]; oleic acid 3 mg/liter", "value": 0.0081}, {"measurement": "OD600 BP63 (ΔfabZ1)", "setting": "[4]; oleic acid 6 mg/liter", "value": 0.0084}, {"measurement": "OD600 BP63 (ΔfabZ1)", "setting": "[4]; oleic acid 12 mg/liter", "value": 0.0234}, {"measurement": "OD600 BP63 (ΔfabZ1)", "setting": "[4]; oleic acid 25 mg/liter", "value": 0.6943}, {"measurement": "OD600 BP63 (ΔfabZ1)", "setting": "[4]; oleic acid 100 mg/liter", "value": 1.1452}, {"measurement": "OD600 BP63 (ΔfabZ1)", "setting": "[4]; oleic acid 200 mg/liter", "value": 1.3725}, {"measurement": "Supports growth of BP63", "setting": "[5]", "value": "YES"}, {"measurement": "OD600 BP15 (fabZ1^+)", "setting": "[6]; oleic acid 1.5 mg/liter", "value": 0.9449}, {"measurement": "OD600 BP15 (fabZ1^+)", "setting": "[6]; oleic acid 3 mg/liter", "value": 0.8375}, {"measurement": "OD600 BP15 (fabZ1^+)", "setting": "[6]; oleic acid 6 mg/liter", "value": 0.9459}, {"measurement": "OD600 BP15 (fabZ1^+)", "setting": "[6]; oleic acid 12 mg/liter", "value": 0.9681}, {"measurement": "OD600 BP15 (fabZ1^+)", "setting": "[6]; oleic acid 25 mg/liter", "value": 1.0069}, {"measurement": "OD600 BP15 (fabZ1^+)", "setting": "[6]; oleic acid 100 mg/liter", "value": 1.0915}, {"measurement": "OD600 BP15 (fabZ1^+)", "setting": "[6]; oleic acid 200 mg/liter", "value": 1.3187}, {"measurement": "Growth (OD600) of BP63 (ΔfabZ1)", "setting": "[3]; oleic acid 10 mg/liter, iso-butanol 0%", "value": 0.0835}, {"measurement": "Growth (OD600) of BP63 (ΔfabZ1)", "setting": "[3]; oleic acid 20 mg/liter, iso-butanol 0%", "value": 0.1046}, {"measurement": "Growth (OD600) of BP63 (ΔfabZ1)", "setting": "[3]; oleic acid 30 mg/liter, iso-butanol 0%", "value": "0.153 and 0.1526"}, {"measurement": "Growth (OD600) of BP63 (ΔfabZ1)", "setting": "[3]; oleic acid 40 mg/liter, iso-butanol 0%", "value": 0.2976}, {"measurement": "Growth (OD600) of BP63 (ΔfabZ1)", "setting": "[3]; oleic acid 50 mg/liter, iso-butanol 0%", "value": 1.181}]}]}
